According to publication PMC11724075, “Small-molecule-induced ERBB4 activation to treat heart failure” (Nature Communications, 2025):
Where “and” joins values, the source holds several entries; their conditions need not be identical. Equal entries are not always repeated.

Legend:
[1] = system: mouse model of AngII-induced myocardial fibrosis; experiment: AngII-induced myocardial fibrosis mouse model, 4 weeks, Masson's trichrome fibrosis, wild type mice; type: in vivo; set-up: key to Total fibrosis male in vivo WT with EF-1 / Total fibrosis female in vivo WT with EF-1 / Total fibrosis male in vivo WT with NA-1: fibrotic (blue-stained) area / total area
Procedure: Four weeks after implantation, cardiac ultrasound was performed, mice were euthanized, and hearts were collected. A similar set-up was used for the 1-week study (Alzet, model 1007D) in male mice (n = 9-10 mice in every group).
Hearts were fixed in 4% PFA, paraffin-embedded, and cut into 5-µm sections. Images were acquired with an Olympus BX43 microscope (Olympus Stream Motion Software) or a CELENA® S Digital Imaging System and analyzed with ImageJ 2.14.0 software. Collagen distribution was visualized by Masson’s trichrome staining. Cardiac total fibrosis was expressed as the ratio of positively stained fibrotic area (blue) to the total area and perivascular fibrosis as the ratio of fibrotic area to vascular lumen area. Scar size was determined by measuring the scar length over the […]. Hypertrophy and vascularisation were visualized via an isolectin-B4/WGA/DAPI staining. Quantification was performed by a person blinded to the treatment protocol.

ERBB4/ERBB4 = target: T1, ERBB4/ERBB4 (Homo sapiens, UniProt Q15303); experiment: PathHunter U2OS ERBB4/ERBB4 dimerization assay, 96-well dose-response; type: cell-based; conditions: for ERBB4/ERBB4 dimerization signal: relative to signal with 0.1 µM NRG1, single biological replicates
T1 construct: host or cells: U2OS (osteosarcoma cells), PathHunter engineered line
Procedure: PathHunter U2OS ERBB4/ERBB4 (osteosarcoma cells; Eurofins, 93-0961C3), U2OS ERBB2/ERBB4 (osteosarcoma cells; Eurofins, 493-0960C3), ERBB2/ERBB3 (osteosarcoma cells; Eurofins, 93-1042C3) and ERBB1/ERBB1 (osteosarcoma cells; Eurofins, 93-0989C3) dimerization cell lines were cultured according to the manufacturer’s instructions. Briefly, cells were cultured in Cell Culture Reagent 103 (Eurofins, 92-3103 G) supplemented with 250 µg/mL Hygromycin B (Eurofins, 92-0029) and 500 µg/mL G418 (Eurofins, 92-0030), and were maintained at 37 °C in humidified atmosphere of 5% CO2. HCFs (Innoprot, P10454) were cultured in fibroblast medium (Innoprot, P60108) supplemented with 10% (v/v) fetal bovine serum (FBS, Innoprot), 10% (v/v) fibroblast growth supplement (Innoprot), and 1% (v/v) penicillin/streptomycin solution (Innoprot). iAMs[33] (kindly provided by LUMC) were cultured in Advanced DMEM F-12 (Thermo Fisher Scientific, 12634028) supplemented with 2% (v/v) heat-inactivated FBS (Thermo Fisher Scientific, 10270106), 1% (v/v) penicillin/streptomycin (10,000 units/mL and 10 mg/mL respectively, Thermo Fisher Scientific, 15140122), 1× GlutaMAX (Thermo Fisher Scientific, 35050061), and 100 ng/mL doxycycline (Tocris, 4090) for proliferation. To induce differentiation, iAMs were transferred to medium without doxycycline.
U2OS ERBB4/ERBB4 dimerization cells were seeded at a density of 5 × 10^4 cells/well in 100 µL Cell Plating 0 Reagent, in white 96-well plates (PerkinElmer, 6005680) and incubated for 24 h at 37 °C, 5% CO2. […] Next, 110 µL PathHunter Flash Detection Reagent was added to each well and incubated at RT for 1 h after which the luminescence signal was measured using the Luminoskan Ascent (Thermo Fisher Scientific). […] The same experimental set-up was used for the U2OS ERBB2/ERBB4, U2OS ERBB2/ERBB3 and U2OS ERBB1/ERBB1 dimerization cell lines.
Category Parameter Description
Assay Type of assay PathHunter Dimerization assays provide a robust, highly sensitive and easy-to-use cell-based functional assay to study various protein activities in a cell. The assay s use
Enzyme Fragment Complementation technology, where the b-galactosidase (b-gal) enzyme is split into two fragments, ProLink and Enzyme Acceptor. Independently these fragments have no b-gal activity. However, when forced to complement through protein-protein interactions, they form an active b-gal enzyme. The PathHunter Dimerization assay detects ligand induced dimerization of two subunits of a receptor-dimer pair. The cells have been engineered to co-express one receptor subunit (ERBB4) fused to Enzyme
Donor, and a second dimer partner (ERBB4) fused to Enzyme Acceptor. Binding of an agonist to one receptor subunit induces it to interact with its dimer partner, forcing complementation of the two enzyme […]
functional enzyme that hydrolyzes a substrate to generate a chemiluminescent signal.
Target ErbB4 receptor (RTK receptor)
Primary measurement Detection of chemiluminescent signal, induced by small-molecule ErbB4 agonists
Key reagents PathHunter Dimerization ErbB4/ErbB4 Cell
Line (93-0961C3) - PathHunter Flash
Detection Kit (03 -0247) - AssayComplete Cell
AssayComplete Cell Detachment Reagent
(92-0009) - AssayComplete Thawing Reagent
T3 (92-4103TR) - AssayComplete Freezing
Assay protocol https://www.discoverx.com/catalog/pathhun

[2] = female wild type mice, AngII/EF-1 group, individual animals
[3] = male wild type mice, AngII/EF-1 group, individual animals
[4] = male wild type mice, EF-1 group (no AngII), individual animals

T1 sequence (Q15303 26-1308): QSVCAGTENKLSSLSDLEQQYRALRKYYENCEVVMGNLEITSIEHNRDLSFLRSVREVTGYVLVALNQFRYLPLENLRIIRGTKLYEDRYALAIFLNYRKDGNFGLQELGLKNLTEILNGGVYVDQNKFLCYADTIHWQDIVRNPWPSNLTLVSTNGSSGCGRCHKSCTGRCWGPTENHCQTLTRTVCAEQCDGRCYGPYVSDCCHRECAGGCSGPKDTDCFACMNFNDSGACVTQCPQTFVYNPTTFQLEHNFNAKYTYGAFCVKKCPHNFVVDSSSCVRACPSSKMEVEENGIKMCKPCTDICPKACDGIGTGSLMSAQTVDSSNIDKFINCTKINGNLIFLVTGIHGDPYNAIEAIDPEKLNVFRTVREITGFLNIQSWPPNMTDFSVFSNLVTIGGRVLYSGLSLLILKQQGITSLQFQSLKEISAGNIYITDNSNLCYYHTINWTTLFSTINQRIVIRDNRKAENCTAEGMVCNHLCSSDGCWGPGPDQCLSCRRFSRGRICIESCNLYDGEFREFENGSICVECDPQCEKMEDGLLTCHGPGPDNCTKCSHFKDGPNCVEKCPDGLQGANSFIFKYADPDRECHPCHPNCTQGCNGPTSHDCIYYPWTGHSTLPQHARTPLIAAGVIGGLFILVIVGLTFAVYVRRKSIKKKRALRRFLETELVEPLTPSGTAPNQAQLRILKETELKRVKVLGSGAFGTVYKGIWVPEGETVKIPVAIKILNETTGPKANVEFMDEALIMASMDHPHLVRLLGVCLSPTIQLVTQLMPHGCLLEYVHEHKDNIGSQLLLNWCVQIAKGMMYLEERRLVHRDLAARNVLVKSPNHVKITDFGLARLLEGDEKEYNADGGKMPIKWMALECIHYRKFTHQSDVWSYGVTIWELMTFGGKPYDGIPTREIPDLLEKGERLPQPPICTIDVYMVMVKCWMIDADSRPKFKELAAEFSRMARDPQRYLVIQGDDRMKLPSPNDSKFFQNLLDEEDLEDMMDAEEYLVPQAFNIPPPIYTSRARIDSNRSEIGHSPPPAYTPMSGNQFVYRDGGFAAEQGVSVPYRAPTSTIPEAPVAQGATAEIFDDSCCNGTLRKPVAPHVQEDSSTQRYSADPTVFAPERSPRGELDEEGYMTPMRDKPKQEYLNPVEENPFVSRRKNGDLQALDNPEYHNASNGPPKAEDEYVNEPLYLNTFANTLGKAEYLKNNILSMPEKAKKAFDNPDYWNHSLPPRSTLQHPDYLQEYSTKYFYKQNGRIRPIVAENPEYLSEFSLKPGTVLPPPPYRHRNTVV
T1 sequence (Q15303 26-1308): as above

## O=C(NC1CC1)C(Sc1nc2ccccc2c(=O)n1C1CCCC1)c1ccccc1 (centres unmarked) [EF-1]
[1]; [2]
  Perivascular fibrosis female in vivo WT with EF-1: 1.006 and 0.6567 and 0.4251 and 0.5106 and 0.5866 and 0.41 and 0.775 and 0.451
  Total fibrosis female in vivo WT with EF-1: 0.56 and 1.25 and 0.75 and 1.11 and 0.5 and 0.41 and 1.42 and 0.66
[1]; male and female wild type mice, EF-1 2 mg/kg/day, 4 weeks
  effect on AngII-induced interstitial and perivascular fibrosis (in words): significantly prevented both interstitial and perivascular fibrosis
[1]; [3]
  Perivascular fibrosis male in vivo WT with EF-1: 2.195 and 0.9604 and 0.7595 and 1.184 and 2.0179
  Total fibrosis male in vivo WT with EF-1: 1.541 and 0.4939 and 0.5555 and 0.9884 and 1.07
[1]; [4]
  Perivascular fibrosis male in vivo WT with EF-1: 0.7074 and 0.782 and 0.418 and 0.8908
  Total fibrosis male in vivo WT with EF-1: 0.8052 and 0.5165 and 0.1613 and 0.2053
ERBB4/ERBB4; 3.125e-8 M
  ERBB4/ERBB4 dimerization signal: 0
ERBB4/ERBB4; 6.25e-8 M
  ERBB4/ERBB4 dimerization signal: -1.6 and -0.07 and 2.169 and 1.573
ERBB4/ERBB4; 1.25e-7 M
  ERBB4/ERBB4 dimerization signal: -0.55 and -0.15 and 2.599 and 0.9551
ERBB4/ERBB4; 2.5e-7 M
  ERBB4/ERBB4 dimerization signal: -1.94 and 0.74 and 2.315 and -0.7582
ERBB4/ERBB4; 5e-7 M
  ERBB4/ERBB4 dimerization signal: -0.55 and 0.26 and 2.323 and -0.4275
ERBB4/ERBB4; 1e-6 M
  ERBB4/ERBB4 dimerization signal: -2 and 0.47 and 4.362 and -0.05827
ERBB4/ERBB4; 2e-6 M
  ERBB4/ERBB4 dimerization signal: 1.2 and 2.97 and 7.682 and 3.162
ERBB4/ERBB4; 4e-6 M
  ERBB4/ERBB4 dimerization signal: 7.41 and 5.76 and 13.8923 and 7.932
ERBB4/ERBB4; 8e-6 M
  ERBB4/ERBB4 dimerization signal: 16.72 and 8.19 and 23.4633 and 9.465
ERBB4/ERBB4; 1.6e-5 M
  ERBB4/ERBB4 dimerization signal: 24.8 and 17.62 and 27.6207 and 19.8392
ERBB4/ERBB4; 3.2e-5 M
  ERBB4/ERBB4 dimerization signal: 30.57 and 22.84 and 33.2287 and 25.0905
ERBB4/ERBB4; % of the effect of NRG1
  Emax, maximum response relative to NRG1: 27.9 ± 4.8%

## Cc1sc2nc(SC(C)C(=O)NCc3ccc4c(c3)OCO4)n(-c3ccccc3)c(=O)c2c1C (centres unmarked) [NA-1]
[1]; AngII/NA-1, individual animals
  Perivascular fibrosis male in vivo WT with NA-1: 1.271 and 2.289 and 2.187 and 2.2768
  Total fibrosis male in vivo WT with NA-1: 7.18 and 11.9815 and 8.108 and 8.95
[1]; male wild type mice, NA-1 2 mg/kg/day
  effect on AngII-induced interstitial and perivascular fibrosis (in words): did not significantly prevent interstitial or perivascular AngII-induced fibrosis
ERBB4/ERBB4
  induction of ERBB4 dimerization (in words): did not activate ERBB4
ERBB4/ERBB4; 3.125e-8 M
  ERBB4/ERBB4 dimerization signal: 0
ERBB4/ERBB4; 1.25e-7 M
  ERBB4/ERBB4 dimerization signal: -1.9 and -5.83
ERBB4/ERBB4; 5e-7 M
  ERBB4/ERBB4 dimerization signal: -1.92 and -5.07
ERBB4/ERBB4; 2e-6 M
  ERBB4/ERBB4 dimerization signal: -1.85 and -3.89
ERBB4/ERBB4; 8e-6 M
  ERBB4/ERBB4 dimerization signal: -1.52 and -5.16
ERBB4/ERBB4; 3.2e-5 M
  ERBB4/ERBB4 dimerization signal: -1.83 and -4.37
